According to paper PMC9386376, “Discovery of spirooxindole-derived small-molecule compounds as novel HDAC/MDM2 dual inhibitors and investigation of their anticancer activity” (Frontiers in Oncology, 2022):
Like-named read-outs stand apart in the source and are kept apart here.

Columns and labels:
HDAC1 = HDAC1 (Homo sapiens, UniProt Q13547); assay: HTRF enzyme inhibition assay, HDAC1; conditions: for % enzyme inhibition HDAC: compound at 1 μM, HTRF, method names HDAC1 protein; for inhibition at 1 µM: read-out: % enzyme inhibition HDAC
HDAC1, sequence (Q13547 whole entry): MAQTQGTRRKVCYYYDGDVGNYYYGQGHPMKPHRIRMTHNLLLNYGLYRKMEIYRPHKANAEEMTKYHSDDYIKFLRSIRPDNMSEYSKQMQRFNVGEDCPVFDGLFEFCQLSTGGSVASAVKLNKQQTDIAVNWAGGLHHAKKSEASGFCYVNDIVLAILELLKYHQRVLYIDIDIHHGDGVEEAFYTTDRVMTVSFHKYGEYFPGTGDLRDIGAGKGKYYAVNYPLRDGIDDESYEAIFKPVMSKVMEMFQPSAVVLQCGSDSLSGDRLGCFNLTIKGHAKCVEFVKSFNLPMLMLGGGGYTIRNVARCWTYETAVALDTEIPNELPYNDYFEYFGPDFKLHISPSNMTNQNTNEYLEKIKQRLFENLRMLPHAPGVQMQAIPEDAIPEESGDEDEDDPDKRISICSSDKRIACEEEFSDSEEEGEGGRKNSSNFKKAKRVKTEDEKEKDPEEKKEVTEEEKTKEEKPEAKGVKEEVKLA

MCF-7 cells [1] = assay: MTT antiproliferative assay, MCF-7
Protocol: (§1) The cytotoxicity assay was performed with MTT method as previously described ([73], [88], [89]).

A431 cells = assay: MTT antiproliferative assay, A431
Protocol: as §1

HCT116 cells = assay: MTT antiproliferative assay, HCT116
Protocol: as §1

GST-tagged MDM2 = target: T1, GST-tagged MDM2 (Homo sapiens, UniProt Q00987); assay: HTRF enzyme inhibition assay, MDM2; format: biochemical; conditions: compound at 1 μM
T1 construct: purchased Cisbio Co. Ltd
T1 sequence (Q00987 whole entry): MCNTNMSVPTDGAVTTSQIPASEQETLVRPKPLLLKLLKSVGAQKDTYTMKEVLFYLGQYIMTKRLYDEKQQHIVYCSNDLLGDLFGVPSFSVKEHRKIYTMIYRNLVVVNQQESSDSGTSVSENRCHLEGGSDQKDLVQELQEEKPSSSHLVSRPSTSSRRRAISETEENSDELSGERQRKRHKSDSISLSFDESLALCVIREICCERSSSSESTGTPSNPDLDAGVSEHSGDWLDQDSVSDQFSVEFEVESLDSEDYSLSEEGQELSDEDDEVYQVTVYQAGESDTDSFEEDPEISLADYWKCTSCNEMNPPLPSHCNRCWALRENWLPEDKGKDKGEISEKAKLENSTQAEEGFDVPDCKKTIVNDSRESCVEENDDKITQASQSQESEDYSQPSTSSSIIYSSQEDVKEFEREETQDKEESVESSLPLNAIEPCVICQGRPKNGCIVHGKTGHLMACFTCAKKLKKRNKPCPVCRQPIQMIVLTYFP
Protocol: The enzymatic assay of test compounds is using the HTRF-based method provided by Cisbio Co. Ltd. In brief, the target compounds to be tested were prepared into samples with a concentration of 1 μM, which was added to GST-tagged MDM2 and HDAC1 proteins, respectively, then biotinylated substrate p53 peptide and HTRF detection reagents were added. The data obtained were processed by the ratio method, and the inhibition rates of MDM2 and HDAC1 were calculated. The detailed experimental procedures are according to the manufacturer’s protocols.

MCF-7 cells [2] = assay: Annexin V-FITC/PI double staining, flow cytometry; format: cell-based, human; conditions: MCF-7, 5.0 μM, 24 h
Protocol: It was reported that the inactivation of HDAC and/or MDM2 could increase the percentage of apoptosis cells ([85]–[87]). Therefore, three methods were applied to assess the effect of MDM2-HDAC dual inhibitor 11b on the apoptosis of MCF-7 cells. […] Subsequently, the annexin V-FITC/propidium iodide (PI) double staining method was carried out to quantitatively detect the effect of compound 11b on cell apoptosis (Figure 9B).
Cells were collected after incubation, then fixed with 75% ice-cold ethanol and stored at -20°C for 1 h. The cells were then harvested with 0.25% trypsin (without EDTA) and centrifuged at 2000 rpm for 5min. Then, the harvested cells were washed with ice-cold PBS twice and resuspended in 500 μL of 1× binding buffer, which was then added to 5 μL of annexin V-FITC and incubated at room temperature in the dark for 15 min. After adding 10 μL of propidium iodide (PI), the cells were incubated at room temperature in the dark. After another 15 min incubation, the cells were collected and analyzed by flow cytometry.

[3] = read-out: IC50 MCF-7, MTT, MCF-7 human breast cancer, mean ± standard of at least three replicates
[4] = read-out: IC50 A431, MTT, A431 human epidermal carcinoma, mean ± standard of at least three replicates
[5] = read-out: IC50 HCT116, MTT, HCT116 human colorectal cancer, mean ± standard of at least three replicates
[6] = Homo sapiens, MCF7, read-out: IC50 MCF-7
[7] = Homo sapiens, A-431, read-out: IC50 A431
[8] = Homo sapiens, HCT-116, read-out: IC50 HCT116

| Compound | inhibition at 1 µM (HDAC1) | melting point | inhibition at 1 µM (GST-tagged MDM2) | further results |
| --- | --- | --- | --- | --- |
| N^1-(4-((3R,6'S,7'R,7a'S)-6-chloro-6'-(3-methoxybenzoyl)-2-oxo-1',6',7',7a'-tetrahydro-3'H-spiro[indoline-3,5'-pyrrolo[1,2-c]thiazol]-7'-yl)phenyl)-N^6-hydroxyadipamide [7w] | – | – | – | % enzyme inhibition HDAC (HDAC1): 69%; IC50 (MCF-7 cells [1]; [3]): 3.77 ± 0.93 µM; IC50 (A431 cells; [4]): 3.32 ± 0.68 µM; IC50 (HCT116 cells; [5]): 3.91 ± 0.84 µM; % enzyme inhibition MDM2 (GST-tagged MDM2): 60% |
| Nc1ccccc1NC(=O)CCCCC(=O)Nc1ccc([C@@H]2[C@H]3CSCN3[C@]3(C(=O)Nc4cc(Cl)ccc43)[C@H]2C(=O)c2ccccc2)cc1 [9c, N^1-(2-aminophenyl)-N^6-(4-((3R,6'S,7'R,7a'S)-6'-benzoyl-6-chloro-2-oxo-1',6',7',7a'-tetrahydro-3'H-spiro[indoline-3,5'-pyrrolo[1,2-c]thiazol]-7'-yl)phenyl)adipamide] | 40% | 148.9 to 150 °C | 57% | – |
| O=C(CCCCCCCCC(=O)Nc1ccc([C@@H]2[C@H]3CSCN3[C@]3(C(=O)Nc4cc(Cl)ccc43)[C@H]2C(=O)c2ccccc2)cc1)NO [7s, N^1-(4-((3R,6'S,7'R,7a'S)-6'-benzoyl-6-chloro-2-oxo-1',6',7',7a'-tetrahydro-3'H-spiro[indoline-3,5'-pyrrolo[1,2-c]thiazol]-7'-yl)phenyl)-N^10-hydroxydecanediamide] | 68% | 137.7 to 139 °C | 59% | – |
| COc1ccc(C2=N[C@@H](c3ccc(Cl)cc3)[C@@H](c3ccc(Cl)cc3)N2C(=O)N2CCNC(=O)C2)c(OC(C)C)c1 [Nutlin-3, reference compound] | – | – | – | IC50 (MCF-7 cells [1]; [6]): 9.75 ± 2.97 µM; IC50 (A431 cells; [7]): 9.72 ± 1.66 µM; IC50 (HCT116 cells; [8]): 11 ± 2.42 µM; apoptotic cells (MCF-7 cells [2]): 28.23% |
| Nc1ccccc1NC(=O)CCCCCCC(=O)Nc1ccc([C@@H]2[C@H]3CSCN3[C@]3(C(=O)Nc4ccccc43)[C@H]2C(=O)c2ccccc2)cc1 [9b, N^1-(2-aminophenyl)-N^8-(4-((3R,6'S,7'R,7a'S)-6'-benzoyl-2-oxo-1',6',7',7a'-tetrahydro-3'H-spiro[indoline-3,5'-pyrrolo[1,2-c]thiazol]-7'-yl)phenyl)octanediamide] | 45% | 131.7 to 132.9 °C | 45% | – |
| COc1cccc(C(=O)[C@H]2[C@H](c3ccc(NC(=O)CCCCCCC(=O)NO)cc3)[C@H]3CSCN3[C@]23C(=O)Nc2ccccc23)c1 [7l, N^1-hydroxy-N^8-(4-((3R,6'S,7'R,7a'S)-6'-(3-methoxybenzoyl)-2-oxo-1',6',7',7a'-tetrahydro-3'H-spiro[indoline-3,5'-pyrrolo[1,2-c]thiazol]-7'-yl)phenyl)octanediamide] | 62% | 121.6 to 122.8 °C | 44% | – |
| COc1ccc2c(c1)[C@@]1(C(=O)N2)[C@@H](C(=O)c2ccccc2)[C@H](c2ccc(NC(=O)CCCCCCC(=O)NO)cc2)[C@H]2CSCN21 [7j, N^1-(4-((3R,6'S,7'R,7a'S)-6'-benzoyl-5-methoxy-2-oxo-1',6',7',7a'-tetrahydro-3'H-spiro[indoline-3,5'-pyrrolo[1,2-c]thiazol]-7'-yl)phenyl)-N^8-hydroxyoctanediamide] | 70% | 134.9 to 136.2 °C | 50% | – |
| O=C(CCCCC(=O)N1CCC(C(=O)Nc2ccc([C@@H]3[C@H]4CSCN4[C@]4(C(=O)Nc5cc(Cl)ccc54)[C@H]3C(=O)c3ccccc3)cc2)CC1)NO [11a, N-(4-((3R,6'S,7'R,7a'S)-6'-benzoyl-6-chloro-2-oxo-1',6',7',7a'-tetrahydro-3'H-spiro[indoline-3,5'-pyrrolo[1,2-c]thiazol]-7'-yl)phenyl)-1-(6-(hydroxyamino)-6-oxohexanoyl)piperidine-4-carboxamide] | 70% | 170.3 to 171.5 °C | 62% | IC50 (MCF-7 cells [1]; [6]): 4.48 ± 1.46 µM; IC50 (A431 cells; [7]): 4.62 ± 0.78 µM; IC50 (HCT116 cells; [8]): 4.32 ± 0.9 µM |
| O=C(CCCCC(=O)Nc1ccc([C@@H]2[C@H]3CSCN3[C@]3(C(=O)Nc4ccccc43)[C@H]2C(=O)c2ccccc2)cc1)NO [7p, N^1-(4-((3R,6'S,7'R,7a'S)-6'-benzoyl-2-oxo-1',6',7',7a'-tetrahydro-3'H-spiro[indoline-3,5'-pyrrolo[1,2-c]thiazol]-7'-yl)phenyl)-N^6-hydroxyadipamide] | 60% | 140.3 to 141.7 °C | 44% | – |
| O=C(CCCCCCC(=O)Nc1ccc([C@@H]2[C@H]3CSCN3[C@]3(C(=O)Nc4cc(Br)ccc43)[C@H]2C(=O)c2ccccc2)cc1)NO [7g, N^1-(4-((3R,6'S,7'R,7a'S)-6'-benzoyl-6-bromo-2-oxo-1',6',7',7a'-tetrahydro-3'H-spiro[indoline-3,5'-pyrrolo[1,2-c]thiazol]-7'-yl)phenyl)-N^8-hydroxyoctanediamide] | 68% | 149.8 to 152.1 °C | 59% | – |
| Nc1ccccc1NC(=O)CCCCCCC(=O)Nc1ccc([C@@H]2[C@H]3CSCN3[C@]3(C(=O)Nc4cc(Cl)ccc43)[C@H]2C(=O)c2ccccc2)cc1 [9d, N^1-(2-aminophenyl)-N^8-(4-((3R,6'S,7'R,7a'S)-6'-benzoyl-6-chloro-2-oxo-1',6',7',7a'-tetrahydro-3'H-spiro[indoline-3,5'-pyrrolo[1,2-c]thiazol]-7'-yl)phenyl)octanediamide] | 55% | 145.2 to 146.4 °C | 56% | – |
| O=C(CCCCCCC(=O)Nc1ccc([C@@H]2[C@@H](c3ccccc3)N[C@]3(C(=O)Nc4cc(Cl)ccc43)[C@H]2C(=O)c2ccccc2)cc1)NO [15a, N^1-(4-((3R,3'S,4'R,5'S)-3'-benzoyl-6-chloro-2-oxo-5'-phenylspiro[indoline-3,2'-pyrrolidin]-4'-yl)phenyl)-N^8-hydroxyoctanediamide] | 61% | 146.5 to 147.6 °C | 67% | IC50 (MCF-7 cells [1]; [6]): 5.71 ± 1.03 µM; IC50 (A431 cells; [7]): 6.99 ± 0.92 µM; IC50 (HCT116 cells; [8]): 8.45 ± 2.44 µM |
| Nc1ccccc1NC(=O)CCC(=O)Nc1ccc([C@@H]2[C@H]3CSCN3[C@]3(C(=O)Nc4ccccc43)[C@H]2C(=O)c2ccccc2)cc1 [9a, N^1-(2-aminophenyl)-N^4-(4-((3R,6'S,7'R,7a'S)-6'-benzoyl-2-oxo-1',6',7',7a'-tetrahydro-3'H-spiro[indoline-3,5'-pyrrolo[1,2-c]thiazol]-7'-yl)phenyl)succinamide] | 37% | 149.1 to 150.2 °C | 50% | – |
| O=C(COCC(=O)Nc1ccc([C@@H]2[C@H]3CSCN3[C@]3(C(=O)Nc4cc(Cl)ccc43)[C@H]2C(=O)c2ccccc2)cc1)NO [7u, N-(4-((3R,6'S,7'R,7a'S)-6'-benzoyl-6-chloro-2-oxo-1',6',7',7a'-tetrahydro-3'H-spiro[indoline-3,5'-pyrrolo[1,2-c]thiazol]-7'-yl)phenyl)-2-(2-(hydroxyamino)-2-oxoethoxy)acetamide] | 54% | 167.1 to 168.5 °C | 61% | IC50 (MCF-7 cells [1]; [6]): 3.47 ± 0.92 µM; IC50 (A431 cells; [7]): 3.64 ± 0.56 µM; IC50 (HCT116 cells; [8]): 4.59 ± 0.91 µM |
| O=C(CCCCCCC(=O)Nc1ccc([C@@H]2[C@H]3CSCN3[C@]3(C(=O)Nc4ccccc43)[C@H]2C(=O)c2cccc(Br)c2)cc1)NO [7n, N^1-(4-((3R,6'S,7'R,7a'S)-6'-(3-bromobenzoyl)-2-oxo-1',6',7',7a'-tetrahydro-3'H-spiro[indoline-3,5'-pyrrolo[1,2-c]thiazol]-7'-yl)phenyl)-N^8-hydroxyoctanediamide] | 69% | 120.2 to 121.5 °C | 43% | – |
| N^1-(4-((3R,6'S,7'R,7a'S)-6-chloro-6'-(4-fluorobenzoyl)-2-oxo-1',6',7',7a'-tetrahydro-3'H-spiro[indoline-3,5'-pyrrolo[1,2-c]thiazol]-7'-yl)phenyl)-N^6-hydroxyadipamide [7x] | – | – | – | % enzyme inhibition HDAC (HDAC1): 73%; IC50 (MCF-7 cells [1]; [3]): 2.9 ± 0.56 µM; IC50 (A431 cells; [4]): 3.43 ± 0.73 µM; IC50 (HCT116 cells; [5]): 3.45 ± 0.57 µM; % enzyme inhibition MDM2 (GST-tagged MDM2): 62% |
| O=C(CCCCCCC(=O)Nc1ccccc1)NO [SAHA, vorinostat] | – | – | – | apoptotic cells (MCF-7 cells [2]): 7.56% |
